The species named for data set [1] is Rattus norvegicus. Kind of data set: Cytotoxicity against […] cells assessed as effect on cell number at 1 mM after 48 hrs by MTT assay. The format is toxicity, cell-based. As to conditions: mc3t3-e1, 48 h, 1000 µM.
For data set [2], the system named is Rattus norvegicus. The experiment in a line: Protection against OVX-induced osteoporosis in osteoporosis rat model assessed as increase in bone mineral density of femur at 220 mg/kg/day after 3 months by dual X-ray absorptiometry. It counts as functional, organism-based.
Data set [3] has as its system Rattus norvegicus. Kind of data set: Protection against OVX-induced oxidative stress in osteoporosis rat model assessed as decrease in H2O2 level in serum at 220 mg/kg/day after 3 months by colorimetric assay. It counts as functional, organism-based.
Data set [4] deals with Rattus norvegicus. The experiment in a line: Protection against OVX-induced oxidative stress in osteoporosis rat model assessed as […] level in serum at 220 mg/kg/day after 3 months by colorimetric assay. It counts as functional, organism-based.
A short description of data set [5]: Induction of Wnt/beta-catenin signaling pathway in […] cells assessed as protection against H2O2-induced oxidative stress in presence of Wnt/beta-catenin signaling pathway inhibitor XAV-939. The format is cell-based.
The subject of data set [6] is MC3T3-E1. Kind of data set: Increase in cell viability of […] cells at 1 mM after 48 hrs by MTT assay. The format is functional, cell-based.
The species entered for data set [7] is Rattus norvegicus. Kind of data set: Cytotoxicity against […] cells assessed as effect on cell number at 2 mM after 48 hrs by MTT assay. As to conditions: mc3t3-e1, 48 h, 2000 µM. It counts as toxicity, cell-based. Background: Tetrazolium dyes change colour on reduction, which living cells bring about.
Data set [8] can be described thus: Induction of Wnt/beta-catenin signaling pathway in […] cells assessed as protection against H2O2-induced cell death at 0.5 to 2 mM pretreated with compound for 48 hrs followed by H2O2 treatment for 24 hrs by MTT assay. It counts as cell-based.
Data set [9] is described as follows: Induction of Wnt/beta-catenin signaling pathway in […] cells assessed as protection against H2O2-induced cell death at 2 mM pretreated with compound for 48 hrs followed by H2O2 treatment for 24 hrs by MTT assay. The format is cell-based.
Data set [10] in a line: Induction of Wnt/beta-catenin signaling pathway in […] cells assessed as protection against H2O2-induced oxidative stress by measuring increase in ALP activity at 0.5 to 2 mM pretreated with compound for 48 hrs followed by H2O2 treatment for 24 hrs. The format is cell-based.
Data set [11] can be described thus: Induction of Wnt/beta-catenin signaling pathway in […] cells assessed as protection against H2O2-induced oxidative stress by measuring increase in ALP activity at 2 mM pretreated with compound for 48 hrs followed by H2O2 treatment for 24 hrs. It counts as cell-based.
The nature of data set [12]: Induction of Wnt/beta-catenin signaling pathway in […] cells assessed as protection against H2O2-induced oxidative stress by measuring increase in mineralization at 0.5 to 2 mM pretreated with compound for 48 hrs followed by H2O2 treatment for 24 hrs. The format is cell-based.
The nature of data set [13]: Induction of Wnt/beta-catenin signaling pathway in […] cells assessed as protection against H2O2-induced oxidative stress by measuring increase in mineralization at 2 mM pretreated with compound for 48 hrs followed by H2O2 treatment for 24 hrs. The format is cell-based.
Data set [14] is described as follows: Induction of Wnt/beta-catenin signaling pathway in rat MC3T3-E1 cells assessed as protection against H2O2-induced oxidative stress by measuring increase in onc mRNA expression at 0.5 to 2 mM pretreated with compound for 48 hrs followed by H2O2 treatment for 24 hrs by immunofluorescence staining method. The format is cell-based.
Data set [15] can be described thus: Induction of Wnt/beta-catenin signaling pathway in […] cells assessed as protection against H2O2-induced oxidative stress by measuring increase in onc mRNA expression at 2 mM pretreated with compound for 48 hrs followed by H2O2 treatment for 24 hrs by immunofluorescence staining method. The format is cell-based.
Data set [16] in a line: Induction of Wnt/beta-catenin signaling pathway in […] cells assessed as protection against H2O2-induced oxidative stress by measuring Runx2 activation at 0.5 to 2 mM pretreated with compound for 48 hrs followed by H2O2 treatment for 24 hrs by Western blot analysis. The format is cell-based. (A western blot detects proteins with antibodies after separation by electrophoresis.)

In data set [17] the test system is MC3T3-E1. Kind of data set: Protection against H2O2-induced apoptosis in […] cells assessed as decrease in nuclear condensation pretreated with compound for 48 hrs followed by H2O2 treatment for 24 hrs by DAPI staining based confocal laser scanning microscopy. It counts as functional, cell-based.
The subject of data set [18] is MC3T3-E1. Kind of data set: Protection against H2O2-induced apoptosis in rat MC3T3-E1 cells assessed as decrease in nuclear fragmentation pretreated with compound for 48 hrs followed by H2O2 treatment for 24 hrs by DAPI staining based confocal laser scanning microscopy. It counts as functional, cell-based.
Data set [19] has as its system MC3T3-E1. Kind of data set: Protection against H2O2-induced apoptosis in rat MC3T3-E1 cells assessed as inhibition of caspase 3 activation using Ac-DEVD-pNA as substrate pretreated with compound for 48 hrs followed by H2O2 treatment for 24 hrs. It counts as functional, cell-based.
Data set [20] deals with MC3T3-E1. Kind of data set: Protection against H2O2-induced apoptosis in rat MC3T3-E1 cells assessed as inhibition of caspase 3 mRNA level pretreated with compound for 48 hrs followed by H2O2 treatment for 24 hrs by quantitative real-time PCR method. It counts as functional, cell-based.
The nature of data set [21]: Induction of Wnt/beta-catenin signaling pathway in […] cells assessed as protection against H2O2-induced oxidative stress by measuring decrease in phosphorylated beta-catenin expression at 0.5 to 2 mM pretreated with compound for 48 hrs followed by H2O2 treatment for 24 hrs by Western blot analysis. The format is cell-based.
Data set [22] in a line: Induction of Wnt/beta-catenin signaling pathway in […] cells assessed as protection against H2O2-induced oxidative stress by measuring decrease in phosphorylated beta-catenin expression at 1.5 mM pretreated with compound for 48 hrs followed by H2O2 treatment for 24 hrs by Western blot analysis. The format is cell-based.
Data set [23] is described as follows: Induction of Wnt/beta-catenin signaling pathway in […] cells assessed as protection against H2O2-induced oxidative stress by measuring OPG activation at 0.5 to 2 mM pretreated with compound for 48 hrs followed by H2O2 treatment for 24 hrs by Western blot analysis. It counts as cell-based.
The nature of data set [24]: Induction of Wnt/beta-catenin signaling pathway in […] cells assessed as protection against H2O2-induced oxidative stress by measuring ALP activation at 0.5 to 2 mM pretreated with compound for 48 hrs followed by H2O2 treatment for 24 hrs by Western blot analysis. The format is cell-based.

The source made the active and inactive calls. The calls are words filed in the database; no cut-off is given here.

Regarding `CC(=O)N[C@@H](CS)C(=O)O` [ACETYLCYSTEINE], the Activity result in [1] is listed as “Non-Toxic”.
As for `O.O.O.O.O.O.O.O.O=P([O-])([O-])OCC1(O)O[C@H](COP(=O)([O-])O)[C@@H](O)[C@@H]1O.[Na+].[Na+].[Na+]` (some centres undefined) [FOSFRUCTOSE TRISODIUM], the outcome in data set [2], in data set [3], in data set [4], in data set [5], in data set [6] and in data set [8] was Active. Moreover, the outcome in data set [9], in data set [10], in [11], in data set [12], in [13] and in [14] was Active. For the same compound, the outcome in data set [15], in data set [16], in data set [17], in data set [18], in data set [19] and in data set [20] was Active. For the same compound, the result in data set [21], in data set [22], in data set [23] and in [24] was Active. In [7], the Activity entry is on record as “Non-Toxic”.
